Counter-ions that a name gives are not always drawn. Values belong to the compound of their own block, whether it stands above or below them.
Tests used:
[1] = tested on: rats under restraint stress; experiment: Measurement of defecation acceleration in rats under restraint stress; assay type: in vivo, rat; settings: 1 hour restraint stress, group average (Normal 1.7, Control 6.8)
Description: (5) Measurement of Defecation Acceleration in Rats under Restraint Stress […] Feed and drinking water were left for their free ingestion until the morning of the day on which the test was given. On the day of the experiment, test compounds were orally administered and positive control solution (the used compounds were dissolved in 1N-hydrochloric acid and diluted with a suitable amount of saline) was administered intraperitoneally. Five (5) minutes thereafter, under lightly anesthetized condition, the rats were placed under restraint stress, with their upper half of the bodies including the front feet immobilized with gum tape. The restraint stress loading was conducted for an hour, and the number of excrements discharged during that period was counted. […] Those compounds which were used as the positive control chemicals used in the acceleration of defecation in rats under restraint stress are identified with the following structures.

5-HT3 receptor = biological target: T1, 5-HT3 receptor (Rattus norvegicus, UniProt P35563); experiment: Measurement of 5-HT3 receptor antagonistic action on rats (in vivo): inhibition of serotonin-induced bradycardia (BJ reflex); settings: anesthetized SD male rats, dose 1.0 mg/kg intravenous, serotonin 300 μg/kg 10 minutes later
T1 construct: from tissue; host or cells: whole animal (SD male rats), serotonin-induced bradycardia
T1 sequence (P35563 24-483): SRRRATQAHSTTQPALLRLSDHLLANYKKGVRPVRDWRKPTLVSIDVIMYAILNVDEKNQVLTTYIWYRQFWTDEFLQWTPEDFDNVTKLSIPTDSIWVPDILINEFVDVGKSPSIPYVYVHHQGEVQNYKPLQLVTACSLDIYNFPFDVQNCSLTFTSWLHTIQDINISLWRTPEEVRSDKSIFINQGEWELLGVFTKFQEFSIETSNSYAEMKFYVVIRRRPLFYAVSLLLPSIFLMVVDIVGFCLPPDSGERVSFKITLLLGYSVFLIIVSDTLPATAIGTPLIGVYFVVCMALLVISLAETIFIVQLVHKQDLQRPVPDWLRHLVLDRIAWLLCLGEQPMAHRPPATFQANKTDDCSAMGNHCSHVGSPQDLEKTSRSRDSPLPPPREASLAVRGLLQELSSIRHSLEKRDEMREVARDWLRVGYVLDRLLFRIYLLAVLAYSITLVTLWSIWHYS
Description: (4) Measurement of 5-HT3 Receptor Antagonistic Action on Rats (in Vivo)
SD male rats (weighing 270-410 g) were anesthetized by peritoneal administration of 1.25 g/kg of urethane (as dissolved in distilled water), and then catheters for measuring blood pressure and heart rate were inserted into their left carotid artery and a catheter for administration of test compound was inserted into their […]. After their blood pressure and heart rate were stabilized, 300 μg/kg of 5-hydroxytryptamine creatinine sulfate (serotonin) was rapidly intravenously administered and thereby induced transient bradycardiac reaction (BC 1) was observed. When the blood pressure and heart rate were re-stabilized after the serotonic administration, the test compounds were intravenously administered to the rats. Ten minutes thereafter, 300 μg/kg of serotonin was once again rapidly intravenously administered and thereby induced transient bradycardiac reaction (BC 2) was observed. Percent inhibition of bradycardia manifestation of each test compound, i.e., BJ reflex inhibition, can be calculated according to the following expression: […]

5-HT1A receptor = biological target: T2, 5-HT1A receptor (Rattus norvegicus, UniProt P19327); experiment: Measurement of 5-HT1A receptor agonistic action on rats (in vivo): lower lip retraction and flat body posture; settings: SD male rats, 10 mg/kg intraperitoneal; maximum of group evaluation points, 4 grades 0-3, observed 5-30 min after administration
T2 construct: from tissue; host or cells: whole animal (SD male rats), behavioural read-out
T2 sequence (P19327 1-422): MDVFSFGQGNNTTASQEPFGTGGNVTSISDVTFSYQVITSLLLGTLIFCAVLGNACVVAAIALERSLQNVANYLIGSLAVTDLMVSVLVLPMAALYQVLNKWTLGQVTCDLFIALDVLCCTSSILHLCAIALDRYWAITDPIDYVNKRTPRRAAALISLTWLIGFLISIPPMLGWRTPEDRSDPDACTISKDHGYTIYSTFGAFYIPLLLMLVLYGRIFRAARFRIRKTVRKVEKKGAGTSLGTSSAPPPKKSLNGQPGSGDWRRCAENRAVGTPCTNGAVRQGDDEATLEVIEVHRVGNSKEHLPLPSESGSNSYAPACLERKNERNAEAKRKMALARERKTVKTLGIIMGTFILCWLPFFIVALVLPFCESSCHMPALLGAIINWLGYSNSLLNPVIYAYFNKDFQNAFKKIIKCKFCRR
Description: (3) Measurement of 5-HT1A Receptor Agonistic Action on Rats (in Vivo):
Seven weeks old SD male rats were divided into 4-5 rats per group which were accustomized to the experimental environments twice. A week after the second accustomization, the rats were put into a transparent plastic case, and 10 mg/kg of a test compound (as dissolved in 1N-hydrochloric acid and diluted with suitable amount of saline) was intraperitoneally administered thereto. Immediately before the administration and 5, 10, 20 and 30 minutes after the administration, behaviors of the rats were observed as to lower lip retraction (LLP) and flat body posture (FBP). The results were evaluated in 4 grades (0: no reaction, 1: feeble reaction, 2: medium reaction, 3: maximum reaction).

human 5-HT1A receptor = biological target: T3, human 5-HT1A receptor (Homo sapiens, UniProt P08908); experiment: Affinity measurement of the compounds to human 5-HT1A receptor (in vitro), [3H]8-OH-DPAT binding; settings: test compound 100 nmols/L; [3H]8-OH-DPAT 0.25 nmols/L; CHO cell membrane expressing human 5-HT1A receptor; read-out: Percent Inhibition (%) on Each Receptor's Binding at 10^−7M, 5-HT1A
T3 construct: purchased Packard Bioscience; host or cells: CHO cells (membrane preparation)
T3 sequence (P08908 1-422): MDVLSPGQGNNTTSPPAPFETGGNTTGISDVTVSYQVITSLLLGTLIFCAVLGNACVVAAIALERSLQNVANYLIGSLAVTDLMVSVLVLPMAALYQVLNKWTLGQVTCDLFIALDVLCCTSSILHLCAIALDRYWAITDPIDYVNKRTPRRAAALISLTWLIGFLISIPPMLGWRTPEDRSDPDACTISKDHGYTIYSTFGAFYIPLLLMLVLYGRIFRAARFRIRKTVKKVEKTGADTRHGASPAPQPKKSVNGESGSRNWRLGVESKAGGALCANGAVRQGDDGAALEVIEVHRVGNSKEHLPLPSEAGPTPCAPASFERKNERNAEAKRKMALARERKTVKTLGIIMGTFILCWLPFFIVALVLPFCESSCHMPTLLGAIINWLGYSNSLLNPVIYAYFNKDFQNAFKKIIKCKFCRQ
In short: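 Membranes from CHO cells expressing human 5-HT1A were incubated 60 min at 27 °C with 0.25 nmol/L [3H]8-OH-DPAT and compound in Tris/MgSO4/EDTA/ascorbate buffer, pH 7.4. Bound radioactivity was collected on PEI-soaked GF/C filters and counted; percent inhibition was corrected for non-specific binding defined with 10 μmol/L 8-OH-DPAT.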

human 5-HT3 receptor = biological target: T4, human 5-HT3 receptor (Homo sapiens, UniProt P46098); experiment: Measurement of affinity to human 5-HT3 receptor (in vitro), [3H]BRL-43694 binding; settings: test compound 100 nmols/L; [3H]BRL-43694 0.5 nmols/L; HEK-293 cell membrane expressing human 5-HT3 receptor; read-out: Percent Inhibition (%) on Each Receptor's Binding at 10^−7M, 5-HT3
T4 construct: purchased BIOLINKS K.K; host or cells: HEK-293 cells (membrane preparation)
T4 sequence (P46098 24-478): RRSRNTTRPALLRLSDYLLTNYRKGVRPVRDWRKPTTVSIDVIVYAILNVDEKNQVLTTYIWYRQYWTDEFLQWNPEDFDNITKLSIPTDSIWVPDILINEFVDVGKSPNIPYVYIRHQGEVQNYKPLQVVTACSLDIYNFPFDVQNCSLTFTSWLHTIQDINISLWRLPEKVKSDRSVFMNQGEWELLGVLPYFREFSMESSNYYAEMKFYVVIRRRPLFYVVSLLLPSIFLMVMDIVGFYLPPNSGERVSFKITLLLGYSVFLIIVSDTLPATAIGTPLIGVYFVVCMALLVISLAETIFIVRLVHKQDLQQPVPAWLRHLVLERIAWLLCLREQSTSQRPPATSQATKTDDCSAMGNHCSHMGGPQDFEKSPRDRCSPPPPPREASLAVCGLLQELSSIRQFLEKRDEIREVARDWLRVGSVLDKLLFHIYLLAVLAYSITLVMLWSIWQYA
In short: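 Membranes from HEK-293 cells expressing the receptor were incubated with 0.5 nmol/L radioligand and compound for 60 min at 25 °C in Tris/MgCl2/EDTA buffer, pH 7.5. Bound radioactivity was collected by filtration and counted. Percent inhibition was corrected for non-specific binding defined with 10 μmol/L tropisetron; compounds were tested at 100 nmol/L.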

[2] = 1 mg/kg intraperitoneal administration
[3] = 3 mg/kg intraperitoneal administration
[4] = 0.3 mg/kg intraperitoneal administration

SMILES: O=C(O)CC(O)(CC(=O)O)C(=O)O.O=C1[C@@H]2[C@H]3CC[C@H](C3)[C@@H]2C(=O)N1CCCCN1CCN(c2ncccn2)CC1 [tandospirone, reference compound]
Number of excrements [1, 2]: 5.7
Number of excrements [1, 3]: 4.3
Number of excrements ([1]; 10 mg/kg intraperitoneal administration): 3.8

melting point: 183.1 to 184.8 °C
SMILES: Cc1sc2nc(SCCCN3CCN(c4ccccn4)CC3)n(N)c(=O)c2c1C [Example 1-2, 3-amino-5,6-dimethyl-2-[3-(4-pyridin-2-ylpiperazin-1-yl)propylthio]-3H-thieno[2,3-d]pyrimidin-4-one]

SMILES: CN1[C@@H]2CCC[C@H]1C[C@@H](NC(=O)c1nn(C)c3ccccc13)C2.Cl [granisetron, reference compound]
Number of excrements [1, 4]: 4.3

SMILES: Oc1ccc2ccnc(N3CCNCC3)c2c1 [Production Example 95, 7-hydroxy-1-piperazin-1-ylisoquinoline hydrochloride]
BC Inhibition (%) (5-HT3 receptor): 96.0%

SMILES: COc1ccc2ccnc(N3CCNCC3)c2c1 [Production Example 34, 7-methoxy-1-piperazin-1-ylisoquinoline]
5-HT1A Receptor Agonistic Action on Rats, FBP (5-HT1A receptor): 2.8
5-HT1A Receptor Agonistic Action on Rats, LLR (5-HT1A receptor): 3.0
BC Inhibition (%) (5-HT3 receptor): 92.0%

SMILES: CN1CCN(c2nccc3ccc(Cl)cc23)CC1 [Production Example 50, 7-chloro-1-(4-methylpiperazin-1-yl)isoquinoline]
BC Inhibition (%) (5-HT3 receptor): 86.8%

SMILES: c1ccc2c(N3CCNCC3)nccc2c1 [Production Example 35, 1-piperazin-1-ylisoquinoline]
BC Inhibition (%) (5-HT3 receptor): 94.6%

SMILES: Cc1[nH]cnc1CN1CCc2c(c3ccccc3n2C)C1=O.Cl [alosetron, reference compound]
Number of excrements [1, 4]: 5.2
Number of excrements [1, 2]: 4.1
Number of excrements [1, 3]: 3.7

SMILES: Cc1nccn1C[C@H]1CCc2c(c3cccc4c3n2CCC4)C1=O [cilansetron, reference compound]
Number of excrements [1, 2]: 4.0

SMILES: Cc1ccc2ccnc(N3CCNCC3)c2c1 [Production Example 46, 7-methyl-1-piperazin-1-ylisoquinoline]
BC Inhibition (%) (5-HT3 receptor): 94.4%

SMILES: Cl.O=C1CC2(CCCC2)CC(=O)N1CCCCN1CCN(c2ncccn2)CC1 [buspirone, reference compound]
Number of excrements [1, 2]: 4.3

inhibition at 0.1 µM (human 5-HT1A receptor): 97.9%
inhibition at 0.1 µM (human 5-HT3 receptor): 92.4%
SMILES: CC1CCc2c(sc3nc(SCCCN4CCN(c5ccc6ccccc6n5)CC4)n(N)c(=O)c23)C1 (stereo not drawn) [Example 1-31, 3-amino-7-methyl-2-[3-(4-quinolin-2-ylpiperazin-1-yl)propylthio]-5,6,7,8-tetrahydro-3H-benzo[4,5]thieno[2,3-d]pyrimidin-4-one]

inhibition at 0.1 µM (human 5-HT1A receptor): 92.1%
inhibition at 0.1 µM (human 5-HT3 receptor): 83.5%
SMILES: CN1CCN(c2nccc3ccc(N(C)C)cc23)CC1 [Production Example 89, 7-dimethylamino-1-(4-methylpiperazin-1-yl)isoquinoline]

SMILES: c1cc2ccoc2c(N2CCN3CCC[C@@H]3C2)n1 [Production Example 110, 7-((8aR)-octahydropyrrolo[1,2-a]pyrazin-2-yl)furo[2,3-c]pyridine]
inhibition at 0.1 µM (human 5-HT1A receptor): 98.9%
inhibition at 0.1 µM (human 5-HT3 receptor): 97.9%

inhibition at 0.1 µM (human 5-HT1A receptor): 85.8%
inhibition at 0.1 µM (human 5-HT3 receptor): 84.7%
SMILES: CCCn1c(CCCCN2CCN(c3ccc4ccccc4n3)CC2)nc2c(c1=O)CCCC2 [Example 7-3, 3-propyl-2-[4-(4-quinolin-2-ylpiperazin-1-yl)butyl]-5,6,7,8-tetrahydro-3H-quinazolin-4-one]

SMILES: Brc1cc2c(N3CCN4CCC[C@H]4C3)nccc2s1 [Production Example 106, 2-bromo-4-((8aS)-octahydropyrrolo[1,2-a]pyrazin-2-yl)thieno[3,2-c]-pyridine]
inhibition at 0.1 µM (human 5-HT1A receptor): 101%
inhibition at 0.1 µM (human 5-HT3 receptor): 98.3%

SMILES: O[C@@H]1C[C@H]2CN(c3nccc4ccsc34)CCN2C1 [Production Example 112, 7-((7R,8aS)-7-hydroxyoctahydropyrrolo[1,2-a]pyrazin-2-yl)thieno-[2,3-c]pyridine]
inhibition at 0.1 µM (human 5-HT1A receptor): 53.9%
inhibition at 0.1 µM (human 5-HT3 receptor): 98.8%

SMILES: c1cc2ccsc2c(N2CCN3CCCCC3C2)n1 (stereo not drawn) [Production Example 120, 7-octahydropyrido[1,2-a]pyrazin-2-ylthieno[2,3-c]pyridine]
inhibition at 0.1 µM (human 5-HT1A receptor): 81%
inhibition at 0.1 µM (human 5-HT3 receptor): 99.4%

SMILES: c1cc2occc2c(N2CCN3CCC[C@H]3C2)n1 [Production Example 105, 4-((8aS)-octahydropyrrolo[1,2-a]pyrazin-2-yl)furo[3,2-c]pyridine]
inhibition at 0.1 µM (human 5-HT1A receptor): 72.7%
inhibition at 0.1 µM (human 5-HT3 receptor): 96.4%

Source: US7799775B2, “Pyrimidine derivatives” (ASKA Pharmaceutical Co., Ltd., priority 2004, dated 2010)
